In ChEMBL document CHEMBL1201862, “PubChem BioAssay data set” (2004):
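The compound was tested at five concentrations on cells cultured in 96-well plates, with a 48-hour exposure period. Abbreviation: GI50, concentration required for 50% inhibition of growth.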 The source made the active and inactive calls. Cut-off read from the data, not from the text of the source: active = GI50 up to about 1.1 µM and inactive = higher.

How the values were obtained:
Experiment in all cases: NCI-60 cell line screen, 48 h
[1] = tested on: SK-MEL-5
[2] = tested on: SNB-19
[3] = tested on: SF-539
[4] = tested on: Malme-3M
[5] = tested on: SW-620
[6] = tested on: OVCAR-5
[7] = tested on: HCC 2998
[8] = tested on: HT-29
[9] = tested on: OVCAR-4
[10] = tested on: NCI-H522
[11] = tested on: SK-MEL-28
[12] = tested on: HCT-15
[13] = tested on: CCRF-CEM
[14] = tested on: HOP-62
[15] = tested on: MOLT-4
[16] = tested on: HCT-116
[17] = tested on: SK-OV-3
[18] = tested on: EKVX
[19] = tested on: UO-31
[20] = tested on: K562

Row | Structure (SMILES) | GI50 [1] | GI50 [2] | GI50 [3] | GI50 [4] | GI50 [5] | GI50 [6] | GI50 [7] | GI50 [8] | GI50 [9] | GI50 [10] | GI50 [11] | GI50 [12] [µM] | GI50 [13] | GI50 [14] | GI50 [15] | GI50 [16] | GI50 [17] | GI50 [18] | GI50 [19] | GI50 [20]
1 | CCOC(=O)C1=C(C)N(C2OC(COC(C)=O)C(OC(C)=O)C(OC(C)=O)C2OC(C)=O)C(=O)NC1c1ccccc1 (stereo not given) | > 100 µM (inactive) | > 100 µM (inactive) | > 100 µM (inactive) | > 100 µM (inactive) | > 100 µM (inactive) | > 100 µM (inactive) | > 100 µM (inactive) | > 100 µM (inactive) | > 100 µM (inactive) | 20 µM (inactive) | > 100 µM (inactive) | > 100 | 44.9 µM (inactive) | > 100 µM (inactive) | 99.1 µM (inactive) | > 100 µM (inactive) | > 100 µM (inactive) | > 100 µM (inactive) | > 100 µM (inactive) | > 100 µM (inactive)
2 | O=C1C(Cl)=C(Cl)C(=O)C2=C1C1c3ccccc3C2c2ccccc21 | > 100 µM (inactive) | 49.5 µM (inactive) | 31.3 µM (inactive) | 24 µM (inactive) | 29.4 µM (inactive) | > 100 µM (inactive) | 63.8 µM (inactive) | > 100 µM (inactive) | 34.3 µM (inactive) | 18.7 µM (inactive) | 38.7 µM (inactive) | 39.3 | 59 µM (inactive) | 28.9 µM (inactive) | > 100 µM (inactive) | 55.3 µM (inactive) | 94.4 µM (inactive) | > 100 µM (inactive) | 47.6 µM (inactive) | 38.6 µM (inactive)
